# Assay results reported in BindingDB's records for doi:10.1016/j.bmc.2009.07.051 (La Rochelle University, 2009).
# Tests used:
# [1] = target: Dual specificity tyrosine-phosphorylation-regulated kinase 1A (Rattus norvegicus, UniProt Q63470); experiment: Inhibition of GST-fused rat recombinant DYRK1A expressed in Escherichia coli assessed as [gamma-33P]ATP incorporation after 10 mins by scintillation counting
# [2] = target: Cyclin-dependent kinase 5 activator 1 (Homo sapiens, UniProt Q15078+Q00535); experiment: Inhibition of GST-fused CDK5/p25 expressed in Escherichia coli assessed as [gamma-33P]ATP incorporation after 10 mins by scintillation counting
# Chain of Cyclin-dependent kinase 5 activator 1 (Q15078 whole entry, the tested form may be a part): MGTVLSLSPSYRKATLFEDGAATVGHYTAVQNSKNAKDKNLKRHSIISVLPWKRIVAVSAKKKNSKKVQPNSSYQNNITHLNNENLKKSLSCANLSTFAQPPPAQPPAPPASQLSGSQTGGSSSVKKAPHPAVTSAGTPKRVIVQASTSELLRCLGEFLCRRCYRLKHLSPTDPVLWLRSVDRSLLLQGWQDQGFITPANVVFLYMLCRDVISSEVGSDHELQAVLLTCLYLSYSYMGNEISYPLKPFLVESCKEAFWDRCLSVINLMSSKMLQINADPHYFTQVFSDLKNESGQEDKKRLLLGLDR
# Chain of Cyclin-dependent kinase 5 activator 1 (Q00535 whole entry, the tested form may be a part): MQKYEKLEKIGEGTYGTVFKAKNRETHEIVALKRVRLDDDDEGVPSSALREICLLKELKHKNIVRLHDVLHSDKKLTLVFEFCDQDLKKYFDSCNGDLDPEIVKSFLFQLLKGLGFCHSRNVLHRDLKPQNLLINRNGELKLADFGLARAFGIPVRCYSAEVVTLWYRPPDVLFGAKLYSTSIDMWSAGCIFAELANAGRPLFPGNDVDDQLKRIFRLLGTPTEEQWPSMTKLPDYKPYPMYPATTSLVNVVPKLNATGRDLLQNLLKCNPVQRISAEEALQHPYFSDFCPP
IC50 [1] [µM],IC50 [2] [µM],SMILES
> 10,,"CC(=O)Nc1ccc2c(c1)C(c1[nH]c3ccc(Br)cc3c1N=O)C(=O)N2 (stereo unspecified) [N-{(Z)-5-Bromo-3-[(E)-hydroxyimino]-2'-oxo-1,3,1',2'-tetrahydro-[2,3']biindolyliden-5'-yl}-acetamide]"
> 10,> 10,O=C1N=c2c(Br)cc([N+](=O)[O-])cc2=C1c1[nH]c2ccccc2c1O [(2'Z)-7-Bromo-5-nitroindirubin]
> 10,,"O=C1N=c2ccc([N+](=O)[O-])cc2=C1c1[nH]c2ccccc2c1O [(Z)-5'-Nitro-1H,1'H-[2,3']biindolylidene-3,2'-dione]"
> 10,> 10,"O=Nc1c(C2C(=O)Nc3c(Br)cc([N+](=O)[O-])cc32)[nH]c2ccccc12 (stereo unspecified) [(Z)-7'-Bromo-5'-nitro-1H,1'H-[2,3']biindolylidene-3,2'-dione 3-oxime]"
> 10,,"O=Nc1c(C2C(=O)Nc3ccc([N+](=O)[O-])cc32)[nH]c2ccc(Br)cc12 (stereo unspecified) [(Z)-5-Bromo-5'-nitro-1H,1'H-[2,3']biindolylidene-3,2'-dione 3-oxime]"
,> 10,O=C1C(C2C(=O)Nc3cc([N+](=O)[O-])ccc32)=Nc2ccccc21 (stereo unspecified) [(2''Z)-6-Nitroindirubin]
> 10,> 10,"O=C1C(C2C(=O)Nc3ccc([N+](=O)[O-])cc32)=Nc2ccc(Br)cc21 (stereo unspecified) [(Z)-5-Bromo-5'-nitro-1H,1'H-[2,3']biindolylidene-3,2'-dione]"
> 10,> 10,"O=Nc1c(C2C(=O)Nc3c(Br)cc([N+](=O)[O-])cc32)[nH]c2ccc(Br)cc12 (stereo unspecified) [(Z)-5,7'-Dibromo-5'-nitro-1H,1'H-[2,3']biindolylidene-3,2'-dione 3-oxime]"
> 10,,"Nc1ccc2c(c1)C(c1[nH]c3ccc(Br)cc3c1N=O)C(=O)N2 (stereo unspecified) [(Z)-5'-Amino-5-bromo-1H,1'H-[2,3']biindolylidene-3,2'-dione 3-oxime]"
,> 10,O=C1C(C2C(=O)Nc3cc([N+](=O)[O-])ccc32)=Nc2ccc(Br)cc21 (stereo unspecified)
> 10,> 10,O=C1C(C2C(=O)Nc3c(Br)cc([N+](=O)[O-])cc32)=Nc2ccc(Br)cc21 (stereo unspecified) [(2'Z)-5'-7-Dibromo-5-nitroindirubin]
